# Measured values taken from patent US4470977A, “Antiemetic and antipsychotic agents” (Adria Laboratories, Inc., priority 1982, dated 1984).
# Tested on: mammary gland
# Assay: Effect of Sulpiride and Sulpiride Analogs on Mammary Gland Development in Female Sprague Dawley Rats
# Format: in vivo
# Conditions: not given
# Description: The animals were individually caged during the 14-day study, with rat chow and tap water permitted ad libitum. The rat chow fed to the control group contained no drug, while that fed to the other groups contained 0.02% drug. Food cups were weighed and refilled on day 7 during the study. On day 14 of the study, the animals were sacrificed by asphyxiation in a CO2 atmosphere and then were weighed. The abdominal skin was cut along the midline from the pelvis to the sternum and separated from underlying tissues by blunt dissection. Each animal was then examined grossly for mammary gland enlargement.
row,Structure (SMILES),mammary hypertrophy (in words)
1,"CCN1CCCC1CNC(=O)c1cccc(Cl)c1OC (stereo not drawn) [Compound 1, 3-chloro-N-(1-ethyl-2-pyrrolidinylmethyl)-2-methoxybenzamide]",without mammary hypertrophy
2,"CCN1CCCC1CNC(=O)c1ccc(Cl)cc1OC (stereo not drawn) [Compound 2, 4-chloro-N-(1-ethyl-2-pyrrolidinylmethyl)-2-methoxybenzamide]",without mammary hypertrophy
3,"CCN1CCCC1CNC(=O)c1cc(Cl)ccc1OC (stereo not drawn) [Compound 3, 5-chloro-N-(1-ethyl-2-pyrrolidinylmethyl)-2-methoxybenzamide]",without mammary hypertrophy
4,"CCN1CCCC1CNC(=O)c1ccccc1OC (stereo not drawn) [Compound 4, N-(1-ethyl-2-pyrrolidinylmethy)-2-methoxybenzamide]",without mammary hypertrophy
5,"CCN1CCCC1CNC(=O)c1ccccc1N (stereo not drawn) [Compound 9, 2-amino-N-(1-ethyl-2-pyrrolidinylmethyl)-benzamide]",without mammary hypertrophy
6,"CCN1CCCC1CNC(=O)c1cc(Cl)ccc1Cl (stereo not drawn) [Compound 12, 2,5-dichloro-N-(1-ethyl-2-pyrrolidinylmethyl)-benzamide]",without mammary hypertrophy
7,"CCN1CCCC1CNC(=O)c1cc(S(N)(=O)=O)ccc1OC (stereo not drawn) [Sulpiride, 2-methoxy-N-(1-ethyl-2-pyrrolidinylmethyl)-5-sulfamoyl benzamide, reference compound]",consistently produce mammary hypertrophy

# Same assay, conditions: n = 6 female Sprague Dawley rats; 0.02% drug in chow; 14 days
row,Structure (SMILES),Number of Animals with Mammary Hypertrophy
1,"CCN1CCCC1CNC(=O)c1cccc(Cl)c1OC (stereo not drawn) [Compound 1, 3-chloro-N-(1-ethyl-2-pyrrolidinylmethyl)-2-methoxybenzamide]",0 animals
2,"CCN1CCCC1CNC(=O)c1ccc(Cl)cc1OC (stereo not drawn) [Compound 2, 4-chloro-N-(1-ethyl-2-pyrrolidinylmethyl)-2-methoxybenzamide]",0 animals
3,"CCN1CCCC1CNC(=O)c1cc(Cl)ccc1OC (stereo not drawn) [Compound 3, 5-chloro-N-(1-ethyl-2-pyrrolidinylmethyl)-2-methoxybenzamide]",0 animals
4,"CCN1CCCC1CNC(=O)c1ccccc1OC (stereo not drawn) [Compound 4, N-(1-ethyl-2-pyrrolidinylmethy)-2-methoxybenzamide]",0 animals
5,"CCN1CCCC1CNC(=O)c1ccc(C)cc1OC (stereo not drawn) [Compound 5, N-(1-ethyl-2-pyrrolidinylmethyl)-2-methoxy-4-methylbenzamide]",0 animals
6,"CCN1CCCC1CNC(=O)c1cc(C)ccc1OC (stereo not drawn) [Compound 6, N-(1-ethyl-2-pyrrolidinylmethyl)-2-methoxy-5-methylbenzamide]",0 animals
7,"CCN1CCCC1CNC(=O)c1cccc([N+](=O)[O-])c1OC (stereo not drawn) [Compound 7, N-(1-ethyl-2-pyrrolidinylmethyl)-2-methoxy-3-nitrobenzamide]",0 animals
8,"CCN1CCCC1CNC(=O)c1cccc(C)c1[N+](=O)[O-] (stereo not drawn) [Compound 8, N-(1-ethyl-2-pyrrolidinylmethyl)-3-methyl-2-nitrobenzamide]",0 animals
9,"CCN1CCCC1CNC(=O)c1ccccc1N (stereo not drawn) [Compound 9, 2-amino-N-(1-ethyl-2-pyrrolidinylmethyl)-benzamide]",0 animals
10,"CCN1CCCC1CNC(=O)c1cccc(C)c1N (stereo not drawn) [Compound 10, 2-amino-N-(1-ethyl-2-pyrrolidinylmethyl)-3-methylbenzamide]",0 animals
11,"CCN1CCCC1CNC(=O)c1cccc(N)c1C (stereo not drawn) [Compound 11, 3-amino-N-(1-ethyl-2-pyrrolidinylmethyl)-2-methylbenzamide]",0 animals
12,"CCN1CCCC1CNC(=O)c1cc(Cl)ccc1Cl (stereo not drawn) [Compound 12, 2,5-dichloro-N-(1-ethyl-2-pyrrolidinylmethyl)-benzamide]",0 animals
13,"CCN1CCCC1CNC(=O)c1cccc(Cl)c1C (stereo not drawn) [Compound 13, 3-chloro-N-(1-ethyl-2-pyrrolidinylmethyl)-2-methylbenzamide]",0 animals
14,"CCN1CCCC1CNC(=O)c1cc(S(N)(=O)=O)ccc1OC (stereo not drawn) [Sulpiride, 2-methoxy-N-(1-ethyl-2-pyrrolidinylmethyl)-5-sulfamoyl benzamide, reference compound]",6 animals

# Tested on: dopaminergic receptors
# Assay: Antagonism to Apomorphine Induced Climbing Behavior
# Format: in vivo, mouse
# Conditions: 20 minutes after 1 mg/kg s.c. apomorphine; doses 6.25 to 100 mg/kg; mouse
# Description: The effect of each of the compounds in Table 1 on apomorphine induced climbing behavior related to stimulation of dopaminergic receptors was studied under the experimental conditions described by Costetin et al, 1975, Rapid and Dissociated Changes in Sensitivities of Different Dopamine Receptors in Mouse Brain, Nature, 257, 405.
row,Structure (SMILES),Antagonism (20 min. After)
1,"CCN1CCCC1CNC(=O)c1cccc(Cl)c1OC (stereo not drawn) [Compound 1, 3-chloro-N-(1-ethyl-2-pyrrolidinylmethyl)-2-methoxybenzamide]",Yes
2,"CCN1CCCC1CNC(=O)c1ccc(Cl)cc1OC (stereo not drawn) [Compound 2, 4-chloro-N-(1-ethyl-2-pyrrolidinylmethyl)-2-methoxybenzamide]",Yes
3,"CCN1CCCC1CNC(=O)c1cc(Cl)ccc1OC (stereo not drawn) [Compound 3, 5-chloro-N-(1-ethyl-2-pyrrolidinylmethyl)-2-methoxybenzamide]",Yes
4,"CCN1CCCC1CNC(=O)c1ccccc1OC (stereo not drawn) [Compound 4, N-(1-ethyl-2-pyrrolidinylmethy)-2-methoxybenzamide]",Yes
5,"CCN1CCCC1CNC(=O)c1ccc(C)cc1OC (stereo not drawn) [Compound 5, N-(1-ethyl-2-pyrrolidinylmethyl)-2-methoxy-4-methylbenzamide]",Yes
6,"CCN1CCCC1CNC(=O)c1cc(C)ccc1OC (stereo not drawn) [Compound 6, N-(1-ethyl-2-pyrrolidinylmethyl)-2-methoxy-5-methylbenzamide]",Yes
7,"CCN1CCCC1CNC(=O)c1cccc([N+](=O)[O-])c1OC (stereo not drawn) [Compound 7, N-(1-ethyl-2-pyrrolidinylmethyl)-2-methoxy-3-nitrobenzamide]",Yes
8,"CCN1CCCC1CNC(=O)c1cccc(C)c1[N+](=O)[O-] (stereo not drawn) [Compound 8, N-(1-ethyl-2-pyrrolidinylmethyl)-3-methyl-2-nitrobenzamide]",No
9,"CCN1CCCC1CNC(=O)c1ccccc1N (stereo not drawn) [Compound 9, 2-amino-N-(1-ethyl-2-pyrrolidinylmethyl)-benzamide]",Yes
10,"CCN1CCCC1CNC(=O)c1cccc(C)c1N (stereo not drawn) [Compound 10, 2-amino-N-(1-ethyl-2-pyrrolidinylmethyl)-3-methylbenzamide]",No
11,"CCN1CCCC1CNC(=O)c1cccc(N)c1C (stereo not drawn) [Compound 11, 3-amino-N-(1-ethyl-2-pyrrolidinylmethyl)-2-methylbenzamide]",No
12,"CCN1CCCC1CNC(=O)c1cc(Cl)ccc1Cl (stereo not drawn) [Compound 12, 2,5-dichloro-N-(1-ethyl-2-pyrrolidinylmethyl)-benzamide]",Yes
13,"CCN1CCCC1CNC(=O)c1cccc(Cl)c1C (stereo not drawn) [Compound 13, 3-chloro-N-(1-ethyl-2-pyrrolidinylmethyl)-2-methylbenzamide]",No
14,"CCN1CCCC1CNC(=O)c1cc(S(N)(=O)=O)ccc1OC (stereo not drawn) [Sulpiride, 2-methoxy-N-(1-ethyl-2-pyrrolidinylmethyl)-5-sulfamoyl benzamide, reference compound]",Yes

# Same assay, conditions: antagonism to apomorphine (1 mg/kg s.c.) induced climbing behavior; mouse; p.o.
row,Structure (SMILES),ED50
1,"CCN1CCCC1CNC(=O)c1cccc(Cl)c1OC (stereo not drawn) [Compound 1, 3-chloro-N-(1-ethyl-2-pyrrolidinylmethyl)-2-methoxybenzamide]",26.8 (20.7-38.5) mg/kg p.o.
2,"CCN1CCCC1CNC(=O)c1cc(S(N)(=O)=O)ccc1OC (stereo not drawn) [Sulpiride, 2-methoxy-N-(1-ethyl-2-pyrrolidinylmethyl)-5-sulfamoyl benzamide, reference compound]",24.3 (19.3-32.4) mg/kg p.o.

# Same assay, conditions: indicator of antipsychotic activity
row,Structure (SMILES),apomorphine induced climbing behavior (in words)
1,"CCN1CCCC1CNC(=O)c1cccc(Cl)c1OC (stereo not drawn) [Compound 1, 3-chloro-N-(1-ethyl-2-pyrrolidinylmethyl)-2-methoxybenzamide]",suppress apomorphine induced climbing behavior
2,"CCN1CCCC1CNC(=O)c1ccc(Cl)cc1OC (stereo not drawn) [Compound 2, 4-chloro-N-(1-ethyl-2-pyrrolidinylmethyl)-2-methoxybenzamide]",suppress apomorphine induced climbing behavior
3,"CCN1CCCC1CNC(=O)c1cc(Cl)ccc1OC (stereo not drawn) [Compound 3, 5-chloro-N-(1-ethyl-2-pyrrolidinylmethyl)-2-methoxybenzamide]",suppress apomorphine induced climbing behavior
4,"CCN1CCCC1CNC(=O)c1ccccc1OC (stereo not drawn) [Compound 4, N-(1-ethyl-2-pyrrolidinylmethy)-2-methoxybenzamide]",suppress apomorphine induced climbing behavior
5,"CCN1CCCC1CNC(=O)c1ccccc1N (stereo not drawn) [Compound 9, 2-amino-N-(1-ethyl-2-pyrrolidinylmethyl)-benzamide]",suppress apomorphine induced climbing behavior
6,"CCN1CCCC1CNC(=O)c1cc(Cl)ccc1Cl (stereo not drawn) [Compound 12, 2,5-dichloro-N-(1-ethyl-2-pyrrolidinylmethyl)-benzamide]",suppress apomorphine induced climbing behavior

# Tested on: medullary chemoreceptor trigger zone (CTZ)
# Assay: Antiemetic Screen: Antagonism to Apomorphine Induced Emesis In the Dog
# Format: in vivo, beagle dogs
# Design: key to Antagonism to Apomorphine Induced Emesis: If both animals receiving a particular treatment are protected (i.e., no emetic response within one hour after apomorphine), the test compound is defined as active (+)
# Conditions: not given
# Protocol: Each compound is administered subcutaneously (sc) to two beagle dogs at 10.0 mg/kg. One hour following administration of the test compound, each animal receives 0.1 mg/kg, sc, of apomorphine HCl. Apomorphine consistently evokes an immediate emetic response through direct dopaminergic interaction at the medullary chemoreceptor trigger zone (CTZ). Antiemetic compounds which act at the CTZ and/or the midbrain vomiting center will block this effect of apomorphine. If both animals receiving a particular treatment are protected (i.e., no emetic response within one hour after apomorphine), the test compound is defined as active (+). In instances where protection is observed in only 1 of the 2 animals, the experiment is repeated in two additional animals and the results of the two tests are combined. Compounds which protect 3 out of 4 animals are then defined as active. The results are shown in Table 4 below and indicate that each of the invention compounds is active against emesis.
row,Structure (SMILES),antiemetic effect (in words)
1,"CCN1CCCC1CNC(=O)c1cccc(Cl)c1OC (stereo not drawn) [Compound 1, 3-chloro-N-(1-ethyl-2-pyrrolidinylmethyl)-2-methoxybenzamide]",possess an antiemetic effect
2,"CCN1CCCC1CNC(=O)c1ccc(Cl)cc1OC (stereo not drawn) [Compound 2, 4-chloro-N-(1-ethyl-2-pyrrolidinylmethyl)-2-methoxybenzamide]",possess an antiemetic effect
3,"CCN1CCCC1CNC(=O)c1cc(Cl)ccc1OC (stereo not drawn) [Compound 3, 5-chloro-N-(1-ethyl-2-pyrrolidinylmethyl)-2-methoxybenzamide]",possess an antiemetic effect
4,"CCN1CCCC1CNC(=O)c1ccccc1OC (stereo not drawn) [Compound 4, N-(1-ethyl-2-pyrrolidinylmethy)-2-methoxybenzamide]",possess an antiemetic effect
5,"CCN1CCCC1CNC(=O)c1ccccc1N (stereo not drawn) [Compound 9, 2-amino-N-(1-ethyl-2-pyrrolidinylmethyl)-benzamide]",possess an antiemetic effect
6,"CCN1CCCC1CNC(=O)c1cc(Cl)ccc1Cl (stereo not drawn) [Compound 12, 2,5-dichloro-N-(1-ethyl-2-pyrrolidinylmethyl)-benzamide]",possess an antiemetic effect

# Same assay, conditions: 10 mg/kg sc, beagle dogs; 0.1 mg/kg sc apomorphine HCl one hour later
row,Structure (SMILES),Antagonism to Apomorphine Induced Emesis
1,"CCN1CCCC1CNC(=O)c1cccc(Cl)c1OC (stereo not drawn) [Compound 1, 3-chloro-N-(1-ethyl-2-pyrrolidinylmethyl)-2-methoxybenzamide]",+
2,"CCN1CCCC1CNC(=O)c1ccc(Cl)cc1OC (stereo not drawn) [Compound 2, 4-chloro-N-(1-ethyl-2-pyrrolidinylmethyl)-2-methoxybenzamide]",+
3,"CCN1CCCC1CNC(=O)c1cc(Cl)ccc1OC (stereo not drawn) [Compound 3, 5-chloro-N-(1-ethyl-2-pyrrolidinylmethyl)-2-methoxybenzamide]",+
4,"CCN1CCCC1CNC(=O)c1ccccc1OC (stereo not drawn) [Compound 4, N-(1-ethyl-2-pyrrolidinylmethy)-2-methoxybenzamide]",+
5,"CCN1CCCC1CNC(=O)c1ccc(C)cc1OC (stereo not drawn) [Compound 5, N-(1-ethyl-2-pyrrolidinylmethyl)-2-methoxy-4-methylbenzamide]",+
6,"CCN1CCCC1CNC(=O)c1cc(C)ccc1OC (stereo not drawn) [Compound 6, N-(1-ethyl-2-pyrrolidinylmethyl)-2-methoxy-5-methylbenzamide]",+
7,"CCN1CCCC1CNC(=O)c1cccc([N+](=O)[O-])c1OC (stereo not drawn) [Compound 7, N-(1-ethyl-2-pyrrolidinylmethyl)-2-methoxy-3-nitrobenzamide]",+
8,"CCN1CCCC1CNC(=O)c1cccc(C)c1[N+](=O)[O-] (stereo not drawn) [Compound 8, N-(1-ethyl-2-pyrrolidinylmethyl)-3-methyl-2-nitrobenzamide]",+
9,"CCN1CCCC1CNC(=O)c1ccccc1N (stereo not drawn) [Compound 9, 2-amino-N-(1-ethyl-2-pyrrolidinylmethyl)-benzamide]",+
10,"CCN1CCCC1CNC(=O)c1cccc(C)c1N (stereo not drawn) [Compound 10, 2-amino-N-(1-ethyl-2-pyrrolidinylmethyl)-3-methylbenzamide]",+
11,"CCN1CCCC1CNC(=O)c1cccc(N)c1C (stereo not drawn) [Compound 11, 3-amino-N-(1-ethyl-2-pyrrolidinylmethyl)-2-methylbenzamide]",+
12,"CCN1CCCC1CNC(=O)c1cc(Cl)ccc1Cl (stereo not drawn) [Compound 12, 2,5-dichloro-N-(1-ethyl-2-pyrrolidinylmethyl)-benzamide]",+
13,"CCN1CCCC1CNC(=O)c1cccc(Cl)c1C (stereo not drawn) [Compound 13, 3-chloro-N-(1-ethyl-2-pyrrolidinylmethyl)-2-methylbenzamide]",+

# Tested on: dopamine receptors
# Assay: not given
# Conditions: cited from earlier work
row,Structure (SMILES),undesirable side effect
1,"CCN1CCCC1CNC(=O)c1cc(S(N)(=O)=O)ccc1OC (stereo not drawn) [Sulpiride, 2-methoxy-N-(1-ethyl-2-pyrrolidinylmethyl)-5-sulfamoyl benzamide, reference compound]",mammary hypertrophy
